Measurements from US7700593B2, “Imidazo- and triazolo-pyridine compounds and methods of use thereof” (Amgen Inc., priority 2006, dated 2010).
pIC50: −log10 of the molar value.

Key:
p38α = p38α (Homo sapiens, UniProt Q16539); test: p38 in-vitro HTRF enzyme assay; format: biochemical; settings: IC50 value ranges
Protocol: p38 In-Vitro HTRF Enzyme Assay
The compounds of the invention can be tested for their respective affinities for the p38 protein using a conventional p38 in-vitro enzyme activity assay. For example, a P38-alpha HTRF assay may be used to measure the protein's in-vitro phosphorylation activity, and the data analyzed using time resolved fluorimetry techniques (FRET). A p38 HTRF assay is as follows. The kinase reaction buffer for p38α, p38β, p38δ and p38γ HTRF assays consists of 50 mM Tris-pH 7.5, 5 mM MgCl2, 0.1 mg/mL BSA, 100 μM Na3VO4 and 0.5 mM DTT. The HTRF detection buffer contains 100 mM HEPES-pH 7.5, 100 mM NaCl, 0.1% BSA, 0.05% Tween-20, and 10 mM EDTA. Each compound was dissolved in 100% DMSO and serially diluted (3 fold, 10 point) in a polypropylene 96-well microtiter plate (drug plate). The final starting concentration of the compound in the p38α and p38β enzymatic assays was about 1 μM. The final starting concentration of each compound in the p38δ and p38γ enzymatic assays was about 10 μM. The p38α, p38β, p38δ and p38γ kinase reactions were carried out in a polypropylene 96-well black round bottom assay plate in total volume of 30 μL kinase reaction buffer. Appropriate concentration of purified and activated enzyme (recombinant human) was mixed with indicated concentration of ATP and 100 nM GST-ATF2-Avitag, in the presence or absence (HI control) of each compound. In the absence of enzyme, the background was measured as LO control. HI controls and LO controls contained only DMSO. The reaction was allowed to incubate for 1 hour at RT. […] After 60 minutes incubation at room temperature, the assay plate was read in a Discovery Plate Reader. The wells were excited with coherent 320 nm light and the ratio of delayed ([…] post excitation) emissions at […] (native europium fluorescence) and 665 nm (europium fluorescence transferred to allophycocyanin—an index of substrate phosphorylation) was determined (Park et al, 1999). The resulting data was analyzed by taking the proportion of substrate phosphorylated in the kinase reaction in the presence of each individual compound and comparing it with that phosphorylated in the presence of DMSO vehicle alone (HI control). The data was calculated using the formula: % control (POC)=(compound−average LO)/(average HI−average LO)*100. Data (consisting of POC and inhibitor concentration in μM) was fitted to a 4-parameter equation (y=A+((B−A)/(1+((x/C)^D))), where A is the minimum y (POC) value, B is the maximum y (POC), C is the x (compound concentration) at the point of inflection and D is the slope factor, using a Levenburg-Marquardt non-linear regression algorithm. The inhibition constant (Ki) of the inhibitor was estimated from the IC50 (compound concentration at the point of inflection C) using the Cheng-Prussof equation: Ki=IC50/(1+S/Km), where S is the ATP substrate concentration, and Km is the Michaelis constant for ATP as determined experimentally. All results were expressed as the mean±the standard error of the mean. Data acquisition and non-linear regression algorithms were performed using Activity Base v5.2 and XLfit software v4.1 respectively. Additional assay information may be obtained in Park Y W, Cummings R T, Wu L, et al. Homogeneous Proximity Tyrosine Kinase Assays Scintillation Proximity Assay versus Homogeneous Time-Resolved Fluorescence. Analytical Biochemistry. 1999; 269: 94-104.

THP1 cells = test: Lipopolysaccharide-activated THP1 cell TNF production assay; format: cell-based, human; settings: Homo sapiens, THP-1; LPS-induced TNF-α production in THP1 cells
Protocol: Lipopolysaccharide-Activated THP1 Cell TNF Production Assay
THP1 cells are resuspended in fresh THP1 media (RPMI 1640, 10% heat-inactivated FBS, 1×PGS, 1×NEAA, plus 30 μM βME) at a concentration of 1E6/mL. One hundred microliters of cells per well are plated in a polystyrene 96-well tissue culture. One microgram per mL of bacterial LPS is prepared in THP1 media and is transferred to the wells. Test compounds are dissolved in 100% DMSO and are serially diluted 3-fold in a polypropylene 96-well microtiter plate (drug plate). HI control and LO control wells contain only DMSO. One microliter of test compound from the drug plate followed by 10 μL of LPS are transferred to the cell plate. The treated cells are induced to synthesize and secrete TNF-α at 37° C. for 3 h. Forty microliters of conditioned media are transferred to a 96-well polypropylene plate containing 110 μL of ECL buffer (50 mM Tris-HCl pH 8.0, 100 mM NaCl, 0.05% Tween 20, 0.05% NaN3 and 1% FBS) supplemented with 0.44 nM MAB610 monoclonal Ab (R&D Systems), 0.34 nM ruthenylated AF210NA polyclonal Ab (R&D Systems) and 44 μg/mL sheep anti-mouse M280 Dynabeads (Dynal). After a 2 h incubation at room temperature with shaking, the reaction is read on the ECL M8 Instrument (IGEN Inc.). A low voltage is applied to the ruthenylated TNF-α immune complexes, which in the presence of TPA (the active component in Origlo), results in a cyclical redox reaction generating light at […]. The amount of secreted TNF-α in the presence of compound compared with that in the presence of DMSO vehicle alone (HI control) is calculated using the formula: % control (POC)=(cpd−average LO)/(average HI−average LO)*100. Data (consisting of POC and inhibitor concentration in μM) is fitted to a 4-parameter equation (y=A+((B−A)/(1+((x/C)^D))), where A is the minimum y (POC) value, B is the maximum y (POC), C is the x (cpd concentration) at the point of inflection and D is the slope factor) using a Levenburg-Marquardt non-linear regression algorithm.

monocytes = test: Lipopolysaccharide-activated monocyte TNF production assay (LPS induced TNF release); format: cell-based, human; settings: Homo sapiens, Monocyte; LPS induced TNF release from monocytes; read-out: LPS induced TNFa
Protocol: Lipopolysaccharide-Activated Monocyte TNF Production Assay
Test compounds were evaluated in vitro for the ability to inhibit the production of TNF by monocytes activated with bacterial lipopolysaccharide (LPS). Fresh residual source leukocytes (a byproduct of plateletpheresis) were obtained from a local blood bank, and peripheral blood mononuclear cells (PBMCs) were isolated by density gradient centrifugation on Ficol-Paque Plus (Pharmacia). PBMCs were suspended at 2×10^6/mL in DMEM supplemented to contain 2% FCS, 10 mM, 0.3 mg/mL […], 100 U/mL penicillin G and […] streptomycin sulfate (complete media). Cells were plated into Falcon flat bottom, 96 well culture plates (200 μL/well) and cultured overnight at 37° C. and 6% CO2. Non-adherent cells were removed by washing with 200 μl/well of fresh medium. Wells containing adherent cells (˜70% monocytes) were replenished with 100 μL of fresh medium.
Preparation of Test Compound Stock Solutions
Test compounds were dissolved in […]. Compound stock solutions were prepared to an initial concentration of […]. Stocks were diluted initially to […] in complete media. Nine two-fold serial dilutions of each compound were then prepared in complete medium.
Treatment of Cells with Test Compounds and Activation of TNF Production with Lipopolysaccharide
One hundred microliters of each test compound dilution were added to microtiter wells containing adherent monocytes and 100 μL complete medium. Monocytes were cultured with test compounds for 60 min at which time 25 μL of complete medium containing 30 ng/mL lipopolysaccharide from E. coli K532 were added to each well. Cells were cultured an additional 4 hrs. Culture supernatants were then removed and TNF presence in the supernatants was quantified using an ELISA.
Flat bottom, 96 well Corning High Binding ELISA plates were coated overnight (4° C.) with 150 μL/well of 3 μg/mL murine anti-human TNF-α MAb (R&D Systems #MAB210). Wells were then blocked for 1 h at room temperature with 200 μL/well of CaCl2-free ELISA buffer supplemented to contain 20 mg/mL BSA (standard ELISA buffer: […], 150 mM NaCl, 2 mM CaCl2, 0.15 mM thimerosal, pH 7.4). Plates were washed and replenished with 100 μL of test supernatants (diluted 1:3) or standards. Standards consisted of eleven 1.5-fold serial dilutions from a stock of 1 ng/mL recombinant human TNF (R&D Systems). Plates were incubated at room temperature for 1 h on orbital shaker (300 rpm), washed and replenished with 100 μL/well of 0.5 μg/mL goat anti-human TNF-α (R&D systems #AB-210-NA) biotinylated at a 4:1 ratio. Plates were incubated for 40 min, washed and replenished with 100 μL/well of alkaline phosphatase-conjugated streptavidin (Jackson ImmunoResearch #016-050-084) at 0.02 μg/mL. Plates were incubated 30 min, washed and replenished with 200 μL/well of 1 mg/mL of p-nitrophenyl phosphate.
Standard curve data were fit to a second order polynomial and unknown TNF-α concentrations determined from their OD by solving this equation for concentration. TNF concentrations were then plotted vs. test compound concentration using a second order polynomial. This equation was then used to calculate the concentration of test compounds causing a 50% reduction in TNF production.

p38α, sequence (Q16539 whole entry): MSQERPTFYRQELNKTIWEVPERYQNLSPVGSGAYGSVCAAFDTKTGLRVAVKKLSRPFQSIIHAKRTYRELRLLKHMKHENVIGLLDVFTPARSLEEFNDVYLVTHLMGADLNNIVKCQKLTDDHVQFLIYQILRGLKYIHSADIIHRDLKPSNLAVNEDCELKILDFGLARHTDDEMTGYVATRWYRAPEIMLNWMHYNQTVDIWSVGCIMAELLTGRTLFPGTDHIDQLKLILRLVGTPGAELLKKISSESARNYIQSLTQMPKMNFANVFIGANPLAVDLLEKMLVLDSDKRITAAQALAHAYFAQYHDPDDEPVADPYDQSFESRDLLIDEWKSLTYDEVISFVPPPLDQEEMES

SMILES	pIC50 (p38α)	pIC50 (THP1 cells)	pIC50 (monocytes)
Cc1ccc(C(=O)NC2CC2)cc1-c1ccn2c(-c3c(C)cccc3F)nnc2c1 [Example 84, N-cyclopropyl-3-(3-(2-fluoro-6-methylphenyl)[1,2,4]triazolo[4,3-a]pyridin-7-yl)-4-methylbenzamide]	> 7.60		
Cc1cc(F)c(C(=O)NC2CC2)cc1-c1ccn2c(-c3c(F)cccc3Cl)nnc2c1 [Example 72, 5-(3-(2-chloro-6-fluorophenyl)[1,2,4]triazolo[4,3-a]pyridin-7-yl)-N-cyclopropyl-2-fluoro-4-methylbenzamide]		7.00 to 7.60	7.00 to 7.60
Cc1c(F)cc(C(=O)NC2CC2)cc1-c1ccn2c(C(C)(C)C)nnc2c1C [Example 76, N-cyclopropyl-3-(3-(1,1-dimethylethyl)-8-methyl[1,2,4]triazolo[4,3-a]pyridin-7-yl)-5-fluoro-4-methylbenzamide]		7.00 to 7.60	6.60 to 7.00
Cc1cc(F)c(C(=O)Nc2ccnn2C)cc1-c1ccn2c(-c3sccc3C)nnc2c1 [Example 68, 2-fluoro-4-methyl-N-(1-methyl-1H-pyrazol-5-yl)-5-(3-(3-methyl-2-thienyl)[1,2,4]triazolo[4,3-a]pyridin-7-yl)benzamide]		> 7.60	6.60 to 7.00
Cc1cc(F)c(C(=O)Nc2ccnn2C)cc1-c1ccn2c(-c3ccccc3Cl)nnc2c1 [Example 71, 5-(3-(2-chlorophenyl)[1,2,4]triazolo[4,3-a]pyridin-7-yl)-2-fluoro-4-methyl-N-(1-methyl-1H-pyrazol-5-yl)benzamide]		7.00 to 7.60	6.60 to 7.00
Cc1ccc(C(=O)NC2CC2)cc1-c1ccn2c(N3CCNC3=O)nnc2c1 [Example 100, N-cyclopropyl-4-methyl-3-(3-(2-oxo-1-imidazolidinyl)[1,2,4]triazolo[4,3-a]pyridin-7-yl)benzamide]		6.00 to 6.60	5.30 to 6.00
Cc1cc(F)c(C(=O)NC2CC2)cc1-c1ccn2c(-c3sccc3C)nnc2c1 [Example 67, N-cyclopropyl-2-fluoro-4-methyl-5-(3-(3-methyl-2-thienyl)[1,2,4]triazolo[4,3-a]pyridin-7-yl)benzamide]		7.00 to 7.60	6.60 to 7.00
Cc1ccc(C(=O)NC2CC2)cc1-c1ccn2c(-c3ccc(S(C)(=O)=O)cc3Cl)nnc2c1 [Example 26, 3-(3-(2-chloro-4-(methylsulfonyl)phenyl)[1,2,4]triazolo[4,3-a]pyridin-7-yl)-N-cyclopropyl-4-methylbenzamide]	> 7.60	6.60 to 7.00	
Cc1ccc(C(=O)NC2CC2)cc1-c1ccn2c(-c3c(F)cccc3F)nnc2c1 [Example 65, N-cyclopropyl-3-(3-(2,6-difluorophenyl)[1,2,4]triazolo[4,3-a]pyridin-7-yl)-4-methylbenzamide]		> 7.60	> 7.60
Cc1ccc(C(=O)NC2CC2)cc1-c1ccn2c([C@@H](C)C(F)(F)F)nnc2c1 [Example 87, N-cyclopropyl-4-methyl-3-(3-((1R)-2,2,2-trifluoro-1-methylethyl)[1,2,4]triazolo[4,3-a]pyridin-7-yl)benzamide]		7.00 to 7.60	6.60 to 7.00
Cc1cc(F)c(C(=O)Nc2ccnn2C)cc1-c1ccn2c(-c3c(F)cccc3Cl)nnc2c1 [Example 73, 5-(3-(2-chloro-6-fluorophenyl)[1,2,4]triazolo[4,3-a]pyridin-7-yl)-2-fluoro-4-methyl-N-(1-methyl-1H-pyrazol-5-yl)benzamide]		> 7.60	7.00 to 7.60
Cc1ccc(C(=O)NC2CC2)cc1-c1ccn2c(C(C)(C)C)nnc2c1C [Example 77, N-cyclopropyl-3-(3-(1,1-dimethylethyl)-8-methyl[1,2,4]triazolo[4,3-a]pyridin-7-yl)-4-methylbenzamide]		7.00 to 7.60	6.60 to 7.00
COc1ccccc1-c1nnc2cc(-c3cc(C(=O)NC4CC4)ccc3C)ccn12 [Example 85, N-cyclopropyl-4-methyl-3-(3-(2-(methyloxy)phenyl)[1,2,4]triazolo[4,3-a]pyridin-7-yl)benzamide]	> 7.60		
